From patent EP0379367B1, “Method for the prevention of intrinsically aged skin with retinoids” (ORTHO PHARMACEUTICAL CORPORATION, priority 1989, dated 1990)
Entries after “also recorded” stand apart in the source; their conditions may differ.

What was measured:
[1] = tested on: Female Albino hairless mice (Skh-hairless-1); settings: mouse, in vivo
Description: (§1) Lifetime Application of all-trans-Retinoic Acid to Albino Hairless Mice.
(§2) Female Albino hairless mice (Skh-hairless-1), age 8-11 weeks, were treated topically, three times a week, for the remainder of their life span as follows:
(§3) The mice were examined monthly for skin changes and possible weight loss that might indicate a toxic effect.
(§4) Toward the end of the study, mice were photographed to show the condition of the skin. A few mice were sacrificed at about 70, 80 and 90 weeks, with dorsal skin taken for histochemical evaluation. The remainder were allowed to live out their life span which ranged from 91-106 weeks and were biopsied when moribound, if possible. The histochemical stains were: H&E for general histology, Luna's for elastic fibers, Van Gieson's for collagen and Mowry's for proteoglycans.

[2] = tested on: Female Albino hairless mice (Skh-hairless-1); experiment: Lifetime topical application of all-trans-retinoic acid to albino hairless mice (toxicity, clinical and histochemical skin observations); settings: for clinical observations: condition of the skin: lifetime application, mice 91-106 weeks of age at photograph (Figure 1), versus vehicle and untreated controls
Description: as §1, §2, §3, §4

## CC1=C(/C=C/C(C)=C/C=C/C(C)=C/C(=O)O)C(C)(C)CCC1 [all-trans-retinoic acid]
[1]
  adverse or unusual effects at biopsy and necropsy: no indication that the mice suffered any adverse or unusual effects
  weights of mice: no difference in the weights
[2]; 0.025% (100 µl) topically, three times a week, remainder of life span, compared with cream vehicle and untreated groups
  mortality: no difference in mortality
[2]
  clinical observations: condition of the skin: thinner, pinker, more uniform skin than the controls
[2]; listed as All-trans-retinoic acid
  clinical observations: condition of the skin: thinner, pinker, more uniform skin than controls or untreated mice
[2]; lifetime treatment
  collagen in the repair zones (Van Gieson's stain): stained mainly as normal, mature collagen
  dermal inflammation (H&E): mild inflammatory infiltrate in the mid-dermis
  epidermal cell morphology (H&E): plump, cytologically normal and have abundant cytoplasm; also recorded: plump, cytologically normal and had an abundant cytoplasm
  granular layer of epidermis (H&E): about 4 cell layers
[2]; lifetime treatment (Figure 4)
  elastic fibers (Luna's stain): increased amount of new elastic fibers
[2]; lifetime treatment, compared with the other groups
  glycosamino-/proteoglycan deposits at the dermal-epidermal junction (Mowry's stain): Fewer deposits
[2]; lifetime treatment, hyperplastic, controls had the usual 2-4 compressed-looking cells
  epidermis (H&E), thickness: about 8 cell layers
[2]; lifetime treatment, no repair areas in controls
  new collagen (H&E; Luna's stain): Areas of new collagen were apparent
[2]; lifetime treatment, sample from a mouse 95 weeks of age
  granular layer of epidermis (H&E, Figure 4): approximately 4 cells
[2]; lifetime treatment, stated for all groups
  dermal glycosaminoglycans or proteoglycans (Mowry's stain): little or no increase
[2]; lifetime treatment, unlike in the controls
  blood vessels (H&E): abundance of new blood vessels; also recorded: readily seen
[2]; treatment over a lifetime
  toxic effects: no detectable toxic effects
